Measured values reported in US20180002319A1, “MACROCYCLIC PICOLINAMIDE COMPOUNDS WITH FUNGICIDAL ACTIVITY” (DOW AGROSCIENCES LLC, priority 2014, published 2018).
Like-named read-outs stand apart in the source and are kept apart here.

Key:
Assay type in all cases: in vivo
Puccinia triticina = assay: Wheat Brown Rust (PUCCRT) fungicidal activity; conditions: for pest or weed control at 100 ppm: High Volume application; for pest or weed control at 121.5 g/ha: Low Volume application, 121.5 g/H
In short: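 Yuma wheat seedlings at first-leaf stage sprayed to run-off with acetone/water (Triton X-100) solutions, inoculated with P. triticina spores before or after treatment. Overnight dark dew at 22° C, then greenhouse at 24° C; percent disease control from severity versus untreated plants.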

[1] = test system: Glomerella lagenarium; Anamorph: Colletotrichum lagenarium; assay: Cucumber Anthracnose (COLLLA) fungicidal activity; conditions: Colletotrichum orbiculare, 24 h, 1DP (1 Day Protectant), read-out: COLLLA Disease Control
Protocol: Technical grades of materials were dissolved in acetone, which were then mixed with nine volumes of H2O containing 110 ppm Triton X-100. The fungicide solutions were applied onto wheat seedlings using an automated booth sprayer to run-off. All sprayed plants were allowed to air dry prior to further handling. All fungicides were evaluated using the aforementioned method for their activity vs. all target diseases, unless stated otherwise. Wheat leaf blotch and brown rust activity were also evaluated using track spray applications, in which case the fungicides were formulated as EC formulations, containing 0.1% Trycol 5941 in the spray solutions. Wheat plants (variety Yuma) were grown from seed in a greenhouse in 50% mineral soil/50% soil-less Metro mix until the first leaf was fully emerged, with 7-10 seedlings per pot. These plants were inoculated with an aqueous spore suspension of Zymoseptoria tritici either prior to or after fungicide treatments. After inoculation the plants were kept in 100% relative humidity (one day in a dark dew chamber followed by two to three days in a lighted dew chamber at 20° C.) to permit spores to germinate and infect the leaf. The plants were then transferred to a greenhouse set at 20° C. for disease to develop. When disease symptoms were fully expressed on the 1st leaves of untreated plants, infection levels were assessed on a scale of 0 to 100 percent disease severity. Percent disease control was calculated using the ratio of disease severity on treated plants relative to untreated plants. Example N: Evaluation of Fungicidal Activity: Cucumber Anthracnose (Glomerella lagenarium; Anamorph: Colletotrichum lagenarium; Bayer Code COLLLA) Cucumber seedlings (variety Bush Pickle) were propagated in soil-less Metro mix, with each pot having one plant, and used in the test when 12 to 14 days old. Test plants were inoculated with an aqueous spore suspension of Colletotrichum lagenarium 24 hr after fungicide treatments. After inoculation the plants were kept in a dew room at 22° C. with 100% relative humidity for 48 hr to permit spores to germinate and infect the leaf. The plants were then transferred to a growth room set at 22° C. for disease to develop. Fungicide formulation, application and disease assessment on the sprayed leaves followed the procedures as described in the Example A.

[2] = test system: Magnaporthe grisea; Anamorph: Pyricularia oryzae; assay: whole plant or invertebrate; conditions: 24 h, read-out: PYRIOR Disease Control
Uncinula necator = assay: Grape Powdery Mildew (UNCINE) fungicidal activity; conditions: Erysiphe necator, 24 h, 1DP (1 Day Protectant), read-out: UNCINE Disease Control
Protocol: Technical grades of materials were dissolved in acetone, which were then mixed with nine volumes of H2O containing 110 ppm Triton X-100. The fungicide solutions were applied onto wheat seedlings using an automated booth sprayer to run-off. All sprayed plants were allowed to air dry prior to further handling. All fungicides were evaluated using the aforementioned method for their activity vs. all target diseases, unless stated otherwise. Wheat leaf blotch and brown rust activity were also evaluated using track spray applications, in which case the fungicides were formulated as EC formulations, containing 0.1% Trycol 5941 in the spray solutions. Wheat plants (variety Yuma) were grown from seed in a greenhouse in 50% mineral soil/50% soil-less Metro mix until the first leaf was fully emerged, with 7-10 seedlings per pot. These plants were inoculated with an aqueous spore suspension of Zymoseptoria tritici either prior to or after fungicide treatments. After inoculation the plants were kept in 100% relative humidity (one day in a dark dew chamber followed by two to three days in a lighted dew chamber at 20° C.) to permit spores to germinate and infect the leaf. The plants were then transferred to a greenhouse set at 20° C. for disease to develop. When disease symptoms were fully expressed on the 1st leaves of untreated plants, infection levels were assessed on a scale of 0 to 100 percent disease severity. Percent disease control was calculated using the ratio of disease severity on treated plants relative to untreated plants. Example E: Evaluation of Fungicidal Activity: Grape Powdery Mildew (Uncinula necator; Bayer Code […]) Grape seedlings (variety Carignane) were grown in soil-less Metro mix, with one plant per pot, and used in the test when approximately one month old. Plants were inoculated 24 hr after fungicide treatment by shaking spores from infected leaves over test plants. Plants were maintained in a greenhouse set at 20° C. until disease was fully developed. Fungicide formulation, application and disease assessment on the sprayed leaves followed the procedures as described in the Example A.

[3] = 24 h, 1 day protectant, read-out: PUCCRT disease control, 1DP (1 Day Protectant)
[4] = 72 h, 3 day curative, read-out: PUCCRT disease control, 3DC (3 Day Curative)

| SMILES | pest or weed control at 100 ppm (Puccinia triticina; [3]) [%] | pest or weed control at 121.5 g/ha (Puccinia triticina; [3]) [%] | pest or weed control at 100 ppm (Puccinia triticina; [4]) [%] | pest or weed control at 121.5 g/ha (Puccinia triticina; [4]) [%] | pest or weed control at 100 ppm [1] [%] | pest or weed control at 100 ppm [2] [%] | pest or weed control at 100 ppm (Uncinula necator) [%] |
| --- | --- | --- | --- | --- | --- | --- | --- |
| CCCCO[C@H]1CCOC[C@H](NC(=O)c2nccc(OC)c2OCOC(C)=O)C(=O)O[C@@H](C)[C@@H]1OCc1ccccc1 [Compound 2] | > 80 | > 80 | > 80 | > 80 | > 80 | > 80 | < 80 |
| CCCCO[C@H]1CCOC[C@H](NC(=O)c2nccc(OC)c2OCOC(C)=O)C(=O)O[C@@H](C)[C@@H]1OC(=O)C(C)C [Compound 3] | > 80 |  | > 80 |  | < 80 | > 80 | < 80 |
| CCCCO[C@H]1CCOC[C@H](NC(=O)c2nccc(OC)c2OCOC(C)=O)C(=O)O[C@@H](C)[C@@H]1OC(=O)c1ccccc1 [Compound 4] | > 80 | > 80 | > 80 | > 80 | > 80 | > 80 | < 80 |
| CCCCO[C@H]1CCOC[C@H](NC(=O)c2nccc(OC)c2OCOC(C)=O)C(=O)O[C@@H](C)[C@@H]1OC(=O)C1CC1 [Compound 5] | > 80 |  | > 80 |  | < 80 | < 80 | < 80 |
| COc1ccnc(C(=O)N[C@H]2COCC[C@@H](OCC(C)C)[C@@H](OCC(C)C)[C@H](C)OC2=O)c1OCOC(C)=O [Compound 6] | > 80 |  | > 80 |  | > 80 | > 80 | < 80 |
| CCCCCO[C@H]1[C@H](C)OC(=O)[C@@H](NC(=O)c2nccc(OC)c2OCOC(C)=O)CCCC[C@@H]1Oc1ccccc1 [Compound 17] | > 80 |  | > 80 |  |  | > 80 | > 80 |
| CCCO[C@H]1[C@H](C)OC(=O)[C@@H](NC(=O)c2nccc(OC)c2OCOC(C)=O)CCCC[C@@H]1Oc1ccccc1 [Compound 18] | > 80 |  | > 80 |  |  | > 80 | < 80 |
| COc1ccnc(C(=O)N[C@H]2CCCC[C@H](Oc3ccccc3)[C@@H](Oc3ccccc3)[C@H](C)OC2=O)c1OCOC(C)=O [Compound 19] | > 80 | > 80 | > 80 | > 80 |  | > 80 | < 80 |
| COc1ccnc(C(=O)N[C@H]2COCC[C@H](Cc3ccccc3)[C@@H](OCC(C)C)[C@H](C)OC2=O)c1OCOC(C)=O [Compound 20] |  | > 80 |  | > 80 | > 80 |  | > 80 |
| COc1ccnc(C(=O)N[C@H]2COCC[C@H](Cc3ccccc3)[C@@H](OCC(C)C)[C@H](C)OC2=O)c1OC(C)=O [Compound 21] |  | > 80 |  | > 80 | > 80 |  | > 80 |
| COc1ccnc(C(=O)N[C@H]2CCOC[C@H](Oc3ccccc3)[C@@H](Oc3ccccc3)[C@H](C)OC2=O)c1OCOC(C)=O [Compound 37] |  | > 80 |  | > 80 | > 80 | > 80 | > 80 |
